#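 Compound exposure: 48 hours, 5 concentrations, 96-well plates. The concentration for 50% growth inhibition is given as GI50. TGI: concentration producing complete growth inhibition.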
# Key:
# Test in all cases: NCI-60 cell line screen, 48 h
# SR leukemia = tested on: SR leukemia
# SNB-19 CNS = tested on: SNB-19 CNS
# ACHN renal = tested on: ACHN renal
# PC-3 prostate = tested on: PC-3 prostate
# NCI-H23 lung = tested on: NCI-H23 lung
# SF-539 CNS = tested on: SF-539 CNS
# CCRF-CEM leukemia = tested on: CCRF-CEM leukemia
# K-562 leukemia = tested on: K-562 leukemia
# IGROV1 ovarian = tested on: IGROV1 ovarian
# HS 578T breast = tested on: HS 578T breast
# MOLT-4 leukemia = tested on: MOLT-4 leukemia
# T-47D breast = tested on: T-47D breast
# UACC-257 melanoma = tested on: UACC-257 melanoma
# EKVX NSCLC = tested on: EKVX NSCLC
# SK-OV-3 ovarian = tested on: SK-OV-3 ovarian
# TK-10 renal = tested on: TK-10 renal
# M14 melanoma = tested on: M14 melanoma
# OVCAR-4 ovarian = tested on: OVCAR-4 ovarian
SMILES,TGI (SR leukemia) [µM],TGI (SNB-19 CNS) [µM],TGI (ACHN renal) [µM],TGI (PC-3 prostate) [µM],TGI (NCI-H23 lung) [µM],TGI (SF-539 CNS) [µM],TGI (CCRF-CEM leukemia) [µM],TGI (K-562 leukemia) [µM],TGI (IGROV1 ovarian) [µM],TGI (HS 578T breast) [µM],TGI (MOLT-4 leukemia) [µM],TGI (T-47D breast) [µM],TGI (UACC-257 melanoma) [µM],TGI (EKVX NSCLC) [µM],TGI (SK-OV-3 ovarian) [µM],TGI (TK-10 renal) [µM],GI50 (MOLT-4 leukemia) [µM],TGI (M14 melanoma) [µM],TGI (OVCAR-4 ovarian) [µM]
C=CCO[C@]1(CC=C)C(=O)C(=O)OC1C1COC(C)(C)O1 (stereo partly specified),67,> 100,31.1,> 100,> 100,> 100,89.5,> 100,> 100,> 100,93.8,> 100,> 100,> 100,–,–,–,–,–
C=C1C(=O)O[C@@H]2C=C(C)C3=CC(=O)[C@](C)(C[C@H](OC(=O)/C(C)=C\C)[C@@H]12)O3,0.786,22.4,3,5.01,3.43,6.09,0.82,2.04,3.04,17.7,1.5,3.81,8.62,8.78,16.8,2.19,0.353,2.46,–
CC[C@H]1C=CCC[C@@]2(C[C@@H]3CC[C@H]4[C@@H](C(=O)OCCCCCCCCCCCCCCCC(=O)N(CCCN)C[C@@H](O)CCN)[C@@]5(CCC[C@@H](C)O5)NC(=[N+]34)N2)O1,3.78,–,> 10,3.1,3.51,2.78,–,3.18,3.13,3.4,2.84,–,3.41,3.25,3.19,3.04,–,3.82,> 10
CCOC(=O)CNc1nc(=O)c2c(=O)oc(Cl)cc2o1,–,> 100,26.3,26,38.5,22,68.3,24.4,21.7,45.1,29.8,61.7,38.4,29.6,> 100,28,–,49.1,34.3
O=C(N/N=C(/COc1ccc([N+](=O)[O-])cc1)N=Cc1ccncc1)c1ccncc1,–,> 100,> 100,> 100,> 100,> 100,> 100,> 100,> 100,–,> 100,> 100,> 100,> 100,> 100,> 100,–,> 100,> 100
COc1cc2cc(C(=O)N3CC(CCl)c4c3cc(N)c3ccccc43)[nH]c2c(OC)c1OC (stereo unspecified),< 0.01,10.5,0.108,< 0.0114,< 0.01,–,< 0.01,< 0.01,0.0401,–,< 0.01,> 100,–,< 0.01,0.248,2.32,–,–,< 0.045
Nc1nn2c(nc(N)c3c(N)[nH]nc32)c1N=Nc1ccc(Br)cc1,> 100,> 92.8,> 100,> 100,> 7.37,49.6,> 100,> 100,> 100,> 100,> 25.9,–,> 100,> 100,> 100,> 100,–,> 53.6,> 92.6
